According to PubChem BioAssay AID1845215 (Molecular Pharmacology Branch, DTP, NCI, 2023):
Values joined by “and” are separate entries in the source; they are usually repeats but may differ in a detail not shown here. Equal values may be shown once. Active and inactive are the calls of the source. Rule for the calls: active = viability on the fitted dose curve at most 10% of control; inactive = the rest.

Test system: SW 1271 complex tumor spheroid viability
Assay: Anticancer human tumor SW 1271 cell line growth inhibition;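 for IC50: spheroids exposed to agents for seven days before readout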;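 for viability, T/C: spheroids exposed to agents for seven days before readout; percent of DMSO vehicle control luminescence so 100% = vehicle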
Settings: for viability, T/C: stronger effect = lower value
Outline: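 Complex tumor spheroids combined malignant cells with endothelial cells and mesenchymal stem cells. DNA-damaging drugs and DNA repair inhibitors were tested alone and in combination, at half-log dilutions down from clinical Cmax (top 10 microM if Cmax unknown), 0.25% DMSO final.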

[1] = curve of first compound, second compound 0.003 µM
[2] = curve of first compound, second compound 30 pM
[3] = curve of first compound, second compound 94.9 pM
[4] = curve of first compound, second compound 0.0003 µM
[5] = curve of first compound, second compound 0.000949 µM
[6] = second compound 30 pM, first compound 0.0316 µM
[7] = second compound 30 pM, first compound 0.1 µM
[8] = second compound 30 pM, first compound 0.316 µM
[9] = second compound 30 pM, first compound 1 µM
[10] = second compound 30 pM, first compound 3.16 µM
[11] = second compound 30 pM, first compound 10 µM
[12] = second compound 94.9 pM, first compound 0.0316 µM
[13] = second compound 94.9 pM, first compound 0.1 µM
[14] = second compound 94.9 pM, first compound 0.316 µM
[15] = second compound 94.9 pM, first compound 1 µM
[16] = second compound 94.9 pM, first compound 3.16 µM
[17] = second compound 94.9 pM, first compound 10 µM
[18] = second compound 0.0003 µM, first compound 0.0316 µM
[19] = second compound 0.0003 µM, first compound 0.1 µM
[20] = second compound 0.0003 µM, first compound 0.316 µM
[21] = second compound 0.0003 µM, first compound 1 µM
[22] = second compound 0.0003 µM, first compound 3.16 µM
[23] = second compound 0.0003 µM, first compound 10 µM
[24] = second compound 0.000949 µM, first compound 0.0316 µM
[25] = second compound 0.000949 µM, first compound 0.1 µM
[26] = second compound 0.000949 µM, first compound 0.316 µM
[27] = second compound 0.000949 µM, first compound 1 µM
[28] = second compound 0.000949 µM, first compound 3.16 µM
[29] = second compound 0.000949 µM, first compound 10 µM
[30] = second compound 0.003 µM, first compound 0.0316 µM
[31] = second compound 0.003 µM, first compound 0.1 µM
[32] = second compound 0.003 µM, first compound 0.316 µM
[33] = second compound 0.003 µM, first compound 1 µM
[34] = second compound 0.003 µM, first compound 3.16 µM
[35] = second compound 0.003 µM, first compound 10 µM

Cc1sc2c(c1C)C(c1ccc(Cl)cc1)=NC(CC(=O)Nc1ccc(O)cc1)c1nnc(C)n1-2 (stereo not given) + CC[C@@]1(O)C(=O)OCc2c1cc1n(c2=O)Cc2cc3c(CN(C)C)c(O)ccc3nc2-1
IC50 [1]: 51.2 nM | IC50 (curve of first compound, second compound 0.00949 µM): 10.8 nM | IC50 (curve of first compound, second compound 0.03 µM): < 9.49 nM | IC50 (curve of first compound, second compound 0.0949 µM): < 9.49 nM | IC50 (curve of first compound, second compound 0.3 µM): < 9.49 nM | viability, T/C (second compound 0.003 µM, first compound 0.00949 µM): 81.4% | viability, T/C (second compound 0.003 µM, first compound 0.03 µM): 71.3% | viability, T/C (second compound 0.003 µM, first compound 0.0949 µM): 25.5% | viability, T/C (second compound 0.003 µM, first compound 0.3 µM): 3.11% | viability, T/C (second compound 0.003 µM, first compound 0.949 µM): 1.06% | viability, T/C (second compound 0.003 µM, first compound 3 µM): 1.11% | viability, T/C (second compound 0.00949 µM, first compound 0.00949 µM): 52.3% | viability, T/C (second compound 0.00949 µM, first compound 0.03 µM): 32.1% | viability, T/C (second compound 0.00949 µM, first compound 0.0949 µM): 12.8% | viability, T/C (second compound 0.00949 µM, first compound 0.3 µM): 2.4% | viability, T/C (second compound 0.00949 µM, first compound 0.949 µM): 1.61% | viability, T/C (second compound 0.00949 µM, first compound 3 µM): 1.61% | viability, T/C (second compound 0.03 µM, first compound 0.00949 µM): 25.2% | viability, T/C (second compound 0.03 µM, first compound 0.03 µM): 24.4% | viability, T/C (second compound 0.03 µM, first compound 0.0949 µM): 14.6% | viability, T/C (second compound 0.03 µM, first compound 0.3 µM): 2.67% | viability, T/C (second compound 0.03 µM, first compound 0.949 µM): 1.56% | viability, T/C (second compound 0.03 µM, first compound 3 µM): 1.13% | viability, T/C (second compound 0.0949 µM, first compound 0.00949 µM): 29% | viability, T/C (second compound 0.0949 µM, first compound 0.03 µM): 24.5% | viability, T/C (second compound 0.0949 µM, first compound 0.0949 µM): 13.2% | viability, T/C (second compound 0.0949 µM, first compound 0.3 µM): 3.31% | viability, T/C (second compound 0.0949 µM, first compound 0.949 µM): 1.34% | viability, T/C (second compound 0.0949 µM, first compound 3 µM): 2.04% | viability, T/C (second compound 0.3 µM, first compound 0.00949 µM): 16.9% | viability, T/C (second compound 0.3 µM, first compound 0.03 µM): 16.3% | viability, T/C (second compound 0.3 µM, first compound 0.0949 µM): 7.74% | viability, T/C (second compound 0.3 µM, first compound 0.3 µM): 1.97% | viability, T/C (second compound 0.3 µM, first compound 0.949 µM): 0.91% | viability, T/C (second compound 0.3 µM, first compound 3 µM): 0.97%

O=C(c1cc(Cc2n[nH]c(=O)c3ccccc23)ccc1F)N1CCN(C(=O)C2CC2)CC1
viability, T/C (compound 0.0949 µM): 91.1% and 93% and 93.6% | viability, T/C (compound 0.3 µM): 77.1% and 81.2% and 80.7% | viability, T/C (compound 0.949 µM): 77% and 74.6% and 75.7% | viability, T/C (compound 3 µM): 41% and 45.6% and 42.4% | viability, T/C (compound 9.49 µM): 29.3% and 28.4% and 28.2% | viability, T/C (compound 30 µM): 24.2% (2×) and 16.6% | IC50 (curve of compound): 2270 nM and 2550 nM and 2470 nM

CC(C)n1c(=O)n(C)c2cnc3cc(F)c(-c4ccc(OCCCN5CCCCC5)nc4)cc3c21
viability, T/C (compound 0.0316 µM): 94.1% and 98.9% and 79.6% | outcome (compound 0.1 µM): inactive | viability, T/C (compound 0.1 µM): 86.3% and 78.7% | viability, T/C (compound 0.316 µM): 92.8% and 94.3% and 72.7% | viability, T/C (compound 1 µM): 94.6% and 83.5% and 71.3% | viability, T/C (compound 3.16 µM): 86.3% and 70.8% and 59.2% | viability, T/C (compound 10 µM): 60.3% and 48.2% and 20.9% | IC50 (curve of compound): > 10000 nM and 9160 nM and 4080 nM

COc1cc(C)[nH]c(=O)c1CN1CCc2c(Cl)cc(C(OC)C3COC3)c(Cl)c2C1=O (stereo not given) + COc1cc2c(cc1O)CCNC21CSC2c3c(OC(C)=O)c(C)c4c(c3C(COC1=O)N1C(O)C3Cc5cc(C)c(OC)c(O)c5C(C21)N3C)OCO4
IC50 [2]: > 10000 nM | IC50 [3]: 5220 nM | IC50 [4]: < 31.6 nM | IC50 [5]: < 31.6 nM | IC50 [1]: < 31.6 nM | viability, T/C [6]: 101% | viability, T/C [7]: 96% | viability, T/C [8]: 96.4% | viability, T/C [9]: 89.6% | viability, T/C [10]: 86.8% | viability, T/C [11]: 77.1% | viability, T/C [12]: 65.9% | viability, T/C [13]: 75.3% | viability, T/C [14]: 67.4% | viability, T/C [15]: 64.4% | viability, T/C [16]: 57% | viability, T/C [17]: 40.9% | viability, T/C [18]: 33.3% | viability, T/C [19]: 37% | viability, T/C [20]: 34.2% | viability, T/C [21]: 38.3% | viability, T/C [22]: 36.6% | viability, T/C [23]: 37.1% | viability, T/C [24]: 5.93% | viability, T/C [25]: 5.35% | viability, T/C [26]: 4.91% | viability, T/C [27]: 3.61% | viability, T/C [28]: 7.88% | viability, T/C [29]: 2.67% | viability, T/C [30]: 0.11% | viability, T/C [31]: 0.12% | viability, T/C [32]: 0.11% | viability, T/C [33]: 0.11% | viability, T/C [34]: 0.11% | viability, T/C [35]: 0.16%

[2H]c1nc(C)nc([2H])c1-c1cc(NC[C@@H](C)c2cccc3c(C(=O)NC)ccnc23)ncn1 + COc1cc2c(cc1O)CCNC21CSC2c3c(OC(C)=O)c(C)c4c(c3C(COC1=O)N1C(O)C3Cc5cc(C)c(OC)c(O)c5C(C21)N3C)OCO4
IC50 [2]: > 10000 nM | IC50 [3]: > 10000 nM | IC50 [4]: < 31.6 nM | IC50 [5]: < 31.6 nM | IC50 [1]: < 31.6 nM | viability, T/C [6]: 104% | viability, T/C [7]: 93.9% | viability, T/C [8]: 98.7% | viability, T/C [9]: 96.4% | viability, T/C [10]: 93.4% | viability, T/C [11]: 90.1% | viability, T/C [12]: 60.4% | viability, T/C [13]: 68.6% | viability, T/C [14]: 75.6% | viability, T/C [15]: 69.9% | viability, T/C [16]: 63.4% | viability, T/C [17]: 51.7% | viability, T/C [18]: 33.1% | viability, T/C [19]: 35.1% | viability, T/C [20]: 33.4% | viability, T/C [21]: 30.1% | viability, T/C [22]: 34.2% | viability, T/C [23]: 31.6% | viability, T/C [24]: 10.5% | viability, T/C [25]: 4.86% | viability, T/C [26]: 4.58% | viability, T/C [27]: 3.72% | viability, T/C [28]: 2.73% | viability, T/C [29]: 1.89% | viability, T/C [30]: 0.1% | viability, T/C [31]: 0.09% | viability, T/C [32]: 0.1% | viability, T/C [33]: 0.09% | viability, T/C [34]: 0.09% | viability, T/C [35]: 0.17%
